How the values were obtained:
[1] = biological target: T1, DDB1DB/DCAF15 and RBM39 R1R2 complex (Homo sapiens, UniProt Q14498+Q66K64); experiment: DCAF15 RBM39 Complex Formation Assay (FRET); assay type: binding; conditions: FRET ratio Em 665/Em 615, incubated overnight at 4° C.
T1 construct: Amino acids 150 to 331 of RBM39 were cloned into pGEX4T3; GST (from vector pGEX4T3); TEV cleavage site (N); made in house; host or cells: DDB1DB/His-DCAF15: baculovirus/Sf9 co-expression; RBM39 R1R2: E. coli (pGEX4T3)
T1 sequence (Q66K64 whole entry, the tested form may be a part): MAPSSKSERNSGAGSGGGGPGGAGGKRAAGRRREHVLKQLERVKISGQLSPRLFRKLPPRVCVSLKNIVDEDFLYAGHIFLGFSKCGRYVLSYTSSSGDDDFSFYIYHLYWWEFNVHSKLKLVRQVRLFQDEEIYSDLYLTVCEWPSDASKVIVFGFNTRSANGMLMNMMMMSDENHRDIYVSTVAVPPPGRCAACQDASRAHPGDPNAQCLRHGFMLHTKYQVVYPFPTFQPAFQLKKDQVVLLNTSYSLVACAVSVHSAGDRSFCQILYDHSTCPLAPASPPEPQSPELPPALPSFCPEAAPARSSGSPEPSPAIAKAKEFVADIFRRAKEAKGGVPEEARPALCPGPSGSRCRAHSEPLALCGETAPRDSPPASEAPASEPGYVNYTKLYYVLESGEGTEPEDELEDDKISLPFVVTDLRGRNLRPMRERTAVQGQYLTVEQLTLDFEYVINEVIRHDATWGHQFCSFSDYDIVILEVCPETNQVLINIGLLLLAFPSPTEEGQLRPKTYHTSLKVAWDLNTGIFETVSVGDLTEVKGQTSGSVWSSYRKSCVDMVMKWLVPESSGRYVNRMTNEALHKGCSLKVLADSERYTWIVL
T1 sequence (Q14498 150-331): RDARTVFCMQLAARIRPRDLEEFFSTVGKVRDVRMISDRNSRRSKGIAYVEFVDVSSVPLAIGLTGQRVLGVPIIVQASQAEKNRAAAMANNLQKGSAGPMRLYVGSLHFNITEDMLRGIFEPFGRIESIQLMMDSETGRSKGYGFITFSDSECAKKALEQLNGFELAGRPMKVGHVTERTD
T1 sequence (Q16531 with tags, fused parts or gaps DEL396-708 partner): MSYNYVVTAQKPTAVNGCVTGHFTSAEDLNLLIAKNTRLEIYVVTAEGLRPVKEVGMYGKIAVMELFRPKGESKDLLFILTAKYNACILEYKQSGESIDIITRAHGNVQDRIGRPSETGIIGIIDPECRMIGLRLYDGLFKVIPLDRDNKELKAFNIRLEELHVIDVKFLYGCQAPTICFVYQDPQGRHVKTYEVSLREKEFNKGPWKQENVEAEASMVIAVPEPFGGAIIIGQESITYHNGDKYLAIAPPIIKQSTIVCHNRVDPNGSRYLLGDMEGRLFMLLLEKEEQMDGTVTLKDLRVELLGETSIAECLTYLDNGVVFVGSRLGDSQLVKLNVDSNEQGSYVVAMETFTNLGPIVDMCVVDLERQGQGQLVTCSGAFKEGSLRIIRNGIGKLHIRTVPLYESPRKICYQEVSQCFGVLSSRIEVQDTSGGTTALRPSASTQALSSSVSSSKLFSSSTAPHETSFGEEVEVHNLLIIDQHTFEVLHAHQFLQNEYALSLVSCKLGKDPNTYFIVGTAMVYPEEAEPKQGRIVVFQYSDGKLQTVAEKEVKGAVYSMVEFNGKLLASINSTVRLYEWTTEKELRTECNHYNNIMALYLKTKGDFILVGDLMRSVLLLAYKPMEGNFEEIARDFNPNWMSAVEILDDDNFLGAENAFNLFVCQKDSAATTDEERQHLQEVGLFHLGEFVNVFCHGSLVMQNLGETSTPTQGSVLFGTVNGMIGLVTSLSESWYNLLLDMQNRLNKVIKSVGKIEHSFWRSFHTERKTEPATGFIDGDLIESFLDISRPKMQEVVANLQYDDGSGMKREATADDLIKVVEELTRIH
How it was run: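 Ternary complex formation read by TR-FRET (Em 665/615, excitation 340 nm) after overnight incubation at 4° C of 20 nM baculovirus DDB1DB/His-DCAF15 and 50 nM E. coli RBM39 RRM1-RRM2 FLAG fragment with 14-point, 3-fold compound dilutions from 1 μM; EC50 from 4-parameter fit.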

[2] = system: HCT116 colorectal carcinoma cells; experiment: In vivo efficacy study, HCT116 xenograft; design: species or system Athymic Nude mice
Text: Compound 3 were formulated with 10% absolute ethanol, 30% PEG400, 60% water containing 0.5% methyl cellulose and 0.5% Tween80®. 2×10^6 HCT116 colorectal carcinoma cells (ATCC® CCL-247) in PBS and Matrigel (1:1 in volume) were inoculated subcutaneously in the right flank of Athymic Nude mice at 6-7 weeks of age for tumor development. When the xenografts reached about 150 mm^3 in size, the tumor bearing mice were randomly grouped into six groups (n=6) and treated by oral gavage with vehicle (10% absolute ethanol, 30% PEG400, 60% water containing 0.5% methyl cellulose and 0.5% Tween80®, BID) or compound 3 at 100 mg/kg BID for 12 days. Tumor sizes were measured twice weekly in two dimensions using a caliper and the volume were expressed in mm^3 using the formula V=0.5×a×b^2 wherein a and b were the long and short diameters of the tumor, respectively. The efficacy study for compound 136 was carried out in the same manner as that of compound 3 except compound 136 was dosed at 30 mg/kg BID for 12 days.

[3] = system: HCT116 human colorectal carcinoma cells; experiment: CellTiter-Glo Luminescent Cell Viability Assay; assay type: cell-based; conditions: HCT-116, 72 h, 3 days
How it was run: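 HCT116 cells were exposed for 3 days to compound in triplicate at final concentrations of 5 to 0.0002 […] (1:3 dilutions). Viability was read by CellTiter-Glo luminescence, and IC50 values were calculated.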

[4] = 100 mg/kg BID oral gavage for 12 days, HCT116 xenograft mice

SMILES	IC50 [1]	EC50 [3]	further results
N#Cc1c[nH]c2c(NS(=O)(=O)c3c[nH]nc3N)ccc(Cl)c12 [Compound 296, 3-amino-N-(4-chloro-3-cyano-1H-indol-7-yl)-1H-pyrazole-4-sulfonamide]	< 250 nM	> 1000 nM	–
Cc1ccc(NS(=O)(=O)c2cnn(C(F)CO)c2)c2[nH]cc(C#N)c12 (centres unmarked) [Compound 297, N-(3-cyano-4-methyl-1H-indol-7-yl)-1-(1-fluoro-2-hydroxy-ethyl)pyrazole-4-sulfonamide]	< 250 nM	< 250 nM	–
N#Cc1c[nH]c2c(NS(=O)(=O)c3cnn(C(F)CO)c3)ccc(F)c12 (centres unmarked) [Compound 298, N-(3-cyano-4-fluoro-1H-indol-7-yl)-1-(1-fluoro-2-hydroxy-ethyl)pyrazole-4-sulfonamide]	< 250 nM	250 to 1000 nM	–
Cn1ncc(S(=O)(=O)Nc2cccc3c(C#N)c[nH]c23)c1N [Compound 299, 5-amino-N-(3-cyano-1H-indol-7-yl)-1-methyl-pyrazole-4-sulfonamide]	< 250 nM	250 to 1000 nM	–
N#Cc1c[nH]c2c(NS(=O)(=O)c3c[nH]nc3N)ccc(F)c12 [Compound 300, 3-amino-N-(3-cyano-4-fluoro-1H-indol-7-yl)-1H-pyrazole-4-sulfonamide]	< 250 nM	> 1000 nM	–
Cc1ccc(NS(=O)(=O)c2cnn(C(F)(F)CO)c2)c2[nH]cc(C#N)c12 [Compound 301, N-(3-cyano-4-methyl-1H-indol-7-yl)-1-(1,1-difluoro-2-hydroxy-ethyl)pyrazole-4-sulfonamide]	< 250 nM	< 250 nM	–
N#Cc1c[nH]c2c(NS(=O)(=O)c3cnn(CF)c3)ccc(F)c12 [Compound 302, N-(3-cyano-4-fluoro-1H-indol-7-yl)-1-(fluoromethyl)pyrazole-4-sulfonamide]	< 250 nM	250 to 1000 nM	–
Cc1ccc(NS(=O)(=O)c2cnn([C@H](C)CO)c2N)c2[nH]cc(C#N)c12 [Compound 303, 5-amino-N-(3-cyano-4-methyl-1H-indol-7-yl)-1-[(1R)-2-hydroxy-1-methyl-ethyl]pyrazole-4-sulfonamide]	< 250 nM	< 250 nM	–
Cc1ccc(NS(=O)(=O)c2cnn(C)c2N)c2[nH]nc(C#N)c12 [Compound 304, 5-amino-N-(3-cyano-4-methyl-1H-indazol-7-yl)-1-methyl-pyrazol-4-sulfonamide]	< 250 nM	< 250 nM	–
Cc1ccc(NS(=O)(=O)c2cnn(CF)c2)c2[nH]nc(C#N)c12 [Compound 305, N-(3-cyano-4-methyl-1H-indazol-7-yl)-1-(fluoromethyl)pyrazole-4-sulfonamide]	< 250 nM	250 to 1000 nM	–
C[C@H](CO)n1ncc(S(=O)(=O)Nc2ccc(Cl)c3c(C#N)c[nH]c23)c1N [Compound 306, 5-amino-N-(4-chloro-3-cyano-1H-indol-7-yl)-1-[(1R)-2-hydroxy-1-methyl-ethyl]pyrazole-4-sulfonamide]	< 250 nM	250 to 1000 nM	–
Cn1ncc(S(=O)(=O)Nc2ccc(Cl)c3c(C#N)n[nH]c23)c1N [Compound 307, 5-amino-N-(4-chloro-3-cyano-1H-indazol-7-yl)-1-methyl-pyrazole-4-sulfonamide]	< 250 nM	> 1000 nM	–
Cc1ccc(NS(=O)(=O)c2cnn(CF)c2N)c2[nH]cc(C#N)c12 [Compound 308, 5-amino-N-(3-cyano-4-methyl-1H-indol-7-yl)-1-(fluoromethyl)pyrazole-4-sulfonamide]	< 250 nM	250 to 1000 nM	–
N#Cc1c[nH]c2c(NS(=O)(=O)c3cnn(CF)c3N)ccc(F)c12 [Compound 309, 5-amino-N-(3-cyano-4-fluoro-1H-indol-7-yl)-1-(fluoromethyl)pyrazole-4-sulfonamide]	< 250 nM	> 1000 nM	–
N#Cc1c[nH]c2c(NS(=O)(=O)c3cnn([C@H](CO)CF)c3)ccc(Cl)c12 [Compound 311, N-(4-chloro-3-cyano-1H-indol-7-yl)-1-[(1R)-1-(fluoromethyl)-2-hydroxy-ethyl]pyrazole-4-sulfonamide]	< 250 nM	250 to 1000 nM	–
N#Cc1c[nH]c2c(NS(=O)(=O)c3cnn(CF)c3N)cccc12 [Compound 312, 5-amino-N-(3-cyano-1H-indol-7-yl)-1-(fluoromethyl)pyrazole-4-sulfonamide]	< 250 nM	> 1000 nM	–

Second part, led by results:

IC50 [1]	EC50 [3]	SMILES	further results
< 250 nM	250 to 1000 nM	Cc1ccc(NS(=O)(=O)c2cnn(C)c2)c2[nH]cc(C#N)c12 [Compound 3, N-(3-cyano-4-methyl-1H-indol-7-yl)-1-methyl-pyrazole-4-sulfonamide]	Body Weight (g) Mean ± SEM [2, 4]: 22.44 ± 0.16 g; Tumor Volume (mm^3) Mean ± SEM [2, 4]: 122.9 ± 33.9 mm^3; Tumor Weight (g) Mean ± SD [2, 4]: .013 ± 0.005 g; body weight versus vehicle group ([2]; HCT116 mouse model, compound 3 100 mg/kg BID, compound 136 30 mg/kg BID, 12 days): no significant difference; reduction of tumor volume and tumor weight ([2]; HCT116 mouse model, compound 3 100 mg/kg BID, compound 136 30 mg/kg BID, 12 days, versus vehicle): statistically significant reduction
< 250 nM	250 to 1000 nM	Cc1ccc(NS(=O)(=O)c2cnn(CC(C)(C)O)c2N)c2[nH]cc(C#N)c12 [Compound 283, 5-amino-N-(3-cyano-4-methyl-1H-indol-7-yl)-1-(2-hydroxy-2-methyl-propyl)pyrazole-4-sulfonamide]	–
< 250 nM	< 250 nM	Cc1ccc(NS(=O)(=O)c2cnn(C(F)F)c2N)c2[nH]cc(C#N)c12 [Compound 284, 5-amino-N-(3-cyano-4-methyl-1H-indol-7-yl)-1-(difluoromethyl)pyrazole-4-sulfonamide]	–
< 250 nM	250 to 1000 nM	N#Cc1c[nH]c2c(NS(=O)(=O)c3cnn(C(F)F)c3N)ccc(F)c12 [Compound 285, 5-amino-N-(3-cyano-4-fluoro-1H-indol-7-yl)-1-(difluoromethyl)pyrazole-4-sulfonamide]	–
< 250 nM	250 to 1000 nM	C[C@H]([C@@H](C)O)n1cc(S(=O)(=O)Nc2ccc(Cl)c3c(C#N)c[nH]c23)cn1 [Compound 286, N-(4-chloro-3-cyano-1H-indol-7-yl)-1-[(1R,2R)-2-hydroxy-1-methyl-propyl]pyrazole-4-sulfonamide]	–
< 250 nM	< 250 nM	Cc1ccc(NS(=O)(=O)c2cnn([C@H](C)[C@@H](C)O)c2)c2[nH]cc(C#N)c12 [Compound 287, N-(3-cyano-4-methyl-1H-indol-7-yl)-1-[(1R,2R)-2-hydroxy-1-methyl-propyl]pyrazole-4-sulfonamide]	–
< 250 nM	250 to 1000 nM	C[C@H]([C@@H](C)O)n1cc(S(=O)(=O)Nc2ccc(F)c3c(C#N)c[nH]c23)cn1 [Compound 288, N-(3-cyano-4-fluoro-1H-indol-7-yl)-1-[(1R,2R)-2-hydroxy-1-methyl-propyl]pyrazole-4-sulfonamide]	–
< 250 nM	250 to 1000 nM	CC(C)(O)Cn1ncc(S(=O)(=O)Nc2ccc(Cl)c3c(C#N)c[nH]c23)c1N [Compound 289, 5-amino-N-(4-chloro-3-cyano-1H-indol-7-yl)-1-(2-hydroxy-2-methyl-propyl)pyrazole-4-sulfonamide]	–
< 250 nM	< 250 nM	CCn1cc(S(=O)(=O)Nc2ccc(C)c3c(C#N)c[nH]c23)c(N)n1 [Compound 290, 3-amino-N-(3-cyano-4-methyl-1H-indol-7-yl)-1-ethyl-pyrazole-4-sulfonamide]	–
< 250 nM	250 to 1000 nM	CCn1cc(S(=O)(=O)Nc2ccc(F)c3c(C#N)c[nH]c23)c(N)n1 [Compound 291, 3-amino-N-(3-cyano-4-fluoro-1H-indol-7-yl)-1-ethyl-pyrazole-4-sulfonamide]	–
< 250 nM	< 250 nM	N#Cc1c[nH]c2c(NS(=O)(=O)c3cnn(C(F)F)c3N)cccc12 [Compound 292]	–
< 250 nM	250 to 1000 nM	Cc1ccc(NS(=O)(=O)c2cnn(C(C)(F)CO)c2)c2[nH]cc(C#N)c12 (centres unmarked) [Compound 293, N-(3-cyano-4-methyl-1H-indol-7-yl)-1-(1-fluoro-2-hydroxy-1-methyl-ethyl)pyrazole-4-sulfonamide]	–
< 250 nM	> 1000 nM	CC(F)(CO)n1cc(S(=O)(=O)Nc2ccc(F)c3c(C#N)c[nH]c23)cn1 (centres unmarked) [Compound 294, N-(3-cyano-4-fluoro-1H-indol-7-yl)-1-(1-fluoro-2-hydroxy-1-methyl-ethyl)pyrazole-4-sulfonamide]	–
< 250 nM	250 to 1000 nM	Cc1ccc(NS(=O)(=O)c2c[nH]nc2N)c2[nH]cc(C#N)c12 [Compound 295, 3-amino-N-(3-cyano-4-methyl-1H-indol-7-yl)-1H-pyrazole-4-sulfonamide]	–

— patent US20250368627A1, “PYRAZOLESULFONAMIDES AS ANTITUMOR AGENTS” (Peloton Therapeutics, Inc., a fully owned subsidiary of …, priority 2019, published 2025)
